Format in all cases: biochemical
The target in assay [1] is T1, CYP3A4 (Homo sapiens, UniProt P08684). Description: Determination of compound Kiapp against recombinant CYP3A4 enzyme (BFC fluorescent substrate). The procedure, abridged:
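Recombinant CYP3A4 (5.5 or 8 nM, with or without b5 depending on source) pre-incubated with inhibitor ≥30 min at room temperature in 100 mM sodium phosphate pH 7.0, 5 mM TCEP, 2% DMF. Reaction started with 200 uM NADPH and 5 uM BFC; initial fluorescence rates over 5 min fitted to Morrison tight-binding (non-partial) or Szedlacsek (partial) equations for Kiapp.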

In assay [2] the target is T1, CYP3A4. Description: Determination of IC50 against CYP3A4 by measurement of inhibition of testosterone metabolism (human liver microsomes, 6-β-OH-testosterone by LC-MS/MS). Further details: 0.1 mg/mL human liver microsomes. The settings on record: read-out: IC50 (Testo.). A digest of the protocol: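 Human liver microsomes (0.1 mg/mL) incubated with 25 μM testosterone and 1 mM NADPH in 100 mM potassium phosphate, pH 7.4, for eight minutes. 6-β-OH-testosterone measured by LC-MS/MS in MRM mode against an internal standard and quantified from a metabolite standard curve.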
(In general: Microsomes from liver hold many membrane-bound enzymes, among them those of drug oxidation.)

Assay [3] has as its target T1, CYP3A4. Description: Determination of IC50 against CYP3A4 by measurement of inhibition of midazolam metabolism (human liver microsomes, 1-hydroxymidazolam by LC-MS/MS). Further details: 0.1 mg/mL human liver microsomes. The settings on record: 2 μM midazolam, 0.1 mg/mL human liver microsomes. A digest of the protocol:
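Human liver microsomes (0.1 mg/mL) incubated 8 min with 2 μM midazolam and 1 mM NADPH in 100 mM potassium phosphate, pH 7.4. 1-Hydroxymidazolam quantified by LC-MS/MS (MRM) as peak area ratio to internal standard against a metabolite standard curve.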

[4] abbreviates: Baculo. enzyme preparation, read-out: Kiapp (BFC, Baculo.).
The mark [5] stands for this setting: Super. enzyme preparation, read-out: Kiapp (BFC, Super.).

Read-outs that look alike come from different tables or passages of the source. A value given as a limit tells only on which side of the number the result lay.

T1 sequence (P08684 whole entry): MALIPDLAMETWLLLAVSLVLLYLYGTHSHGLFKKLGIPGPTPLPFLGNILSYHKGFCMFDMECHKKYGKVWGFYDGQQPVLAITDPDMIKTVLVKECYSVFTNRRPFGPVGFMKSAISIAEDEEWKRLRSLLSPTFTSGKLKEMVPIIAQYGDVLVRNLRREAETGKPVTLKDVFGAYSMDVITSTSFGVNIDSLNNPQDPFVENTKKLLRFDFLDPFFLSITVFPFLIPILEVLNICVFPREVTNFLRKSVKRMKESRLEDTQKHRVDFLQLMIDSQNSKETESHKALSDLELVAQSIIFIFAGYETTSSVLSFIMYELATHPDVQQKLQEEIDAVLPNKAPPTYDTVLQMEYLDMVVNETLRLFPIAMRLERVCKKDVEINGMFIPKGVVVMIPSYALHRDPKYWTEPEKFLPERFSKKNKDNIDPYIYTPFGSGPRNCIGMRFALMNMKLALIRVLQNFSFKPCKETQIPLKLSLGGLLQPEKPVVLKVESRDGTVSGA

The IC50 is the midpoint of a concentration-inhibition curve. Consider `O=C(c1ccccc1S(=O)(=O)Nc1cccnc1)N1CCC(O)CC1` [Example 28, 2-[(4-hydroxypiperidin-1-yl)carbonyl]-N-pyridin-3-ylbenzenesulfonamide], for which, on CYP3A4 [1] (setting [4]), the Ki is above 1 µM. The IC50 at CYP3A4 [2] and at CYP3A4 [3] was above 0.75 µM throughout.
Regarding `O=C(NCCc1ccccn1)c1ccccc1S(=O)(=O)Nc1cccnc1` [Example 66, 2-[(pyridin-3-ylamino)sulfonyl]-N-(2-pyridin-2-ylethyl)benzamide], the Ki was above 1 µM at CYP3A4 [1] (setting [4]) and 0.21 µM on CYP3A4 [1] (setting [5]). Besides, the IC50 on CYP3A4 [2] was found to be 0.302 µM; at CYP3A4 [3], 0.146 µM.
In the case of `COc1ccncc1NS(=O)(=O)c1ccccc1C(=O)N1CCCCC1` [Example 18, N-(4-methoxypyridin-3-yl)-2-(piperidin-1-ylcarbonyl)benzenesulfonamide], the Ki at CYP3A4 [1] (setting [4]) was 0.57 µM. Also, the IC50 on CYP3A4 [2] was found to be 0.349 µM; on CYP3A4 [3], 0.146 µM.
Consider `Cc1cncc(NS(=O)(=O)c2ccccc2C(=O)N2CCCCC2)c1` [Example 30, N-(5-methylpyridin-3-yl)-2-(piperidin-1-ylcarbonyl)benzenesulfonamide], for which, at CYP3A4 [1] (setting [4]), the Ki was 0.69 µM. In addition, the IC50 on CYP3A4 [2] is 0.125 µM; on CYP3A4 [3], 0.056 µM.
As for `CCOc1cncc(NS(=O)(=O)c2ccccc2C(=O)NC2CCCCC2)c1` [Example 302, N-cyclohexyl-2-{[(5-ethoxypyridin-3-yl)amino]sulfonyl}benzamide], the Ki amounted to 0.0789 µM at CYP3A4 [1] (setting [4]) and 0.0245 µM on CYP3A4 [1] (setting [5]). Also, the IC50 at CYP3A4 [2] came out at 0.11 µM; on CYP3A4 [3], 0.023 µM.
Take `O=C(c1ccccc1S(=O)(=O)Nc1cccnc1)N1CC2(CCNCC2)C1` [Example 7, 2-(2,7-diazaspiro[3.5]non-2-ylcarbonyl)-N-pyridin-3-ylbenzenesulfonamide]: the Ki at CYP3A4 [1] (setting [4]) and at CYP3A4 [1] (setting [5]) was above 1 µM throughout. Besides, the IC50 on CYP3A4 [2] and on CYP3A4 [3] was above 0.75 µM each time.
Take `COc1ccncc1NS(=O)(=O)c1ccccc1C(=O)NCCc1ccccc1OC(F)(F)F` [Example 221, 2-{[(4-methoxypyridin-3-yl)amino]sulfonyl}-N-{2-[2-(trifluoromethoxy)phenyl]ethyl} benzamide]: the Ki on CYP3A4 [1] (setting [4]) was found to be 0.016 µM; on CYP3A4 [1] (setting [5]) it was 0.0089 µM. Also, the IC50 at CYP3A4 [2] was 0.012 µM; at CYP3A4 [3] it was 0.011 µM.
Turning to `COc1cc(CNC(=O)c2ccccc2S(=O)(=O)Nc2cccnc2)cc(OC)c1` [Example 51, N-(3,5-dimethoxybenzyl)-2-[(pyridin-3-ylamino)sulfonyl]benzamide], the Ki at CYP3A4 [1] (setting [4]) amounted to 0.68 µM. The IC50 on CYP3A4 [2] is 0.057 µM; on CYP3A4 [3], 0.034 µM.
In the case of `CCOc1ccncc1NS(=O)(=O)c1ccccc1C(=O)NCCC(C)C` [Example 271, 2-{[(4-ethoxypyridin-3-yl)amino]sulfonyl}-N-(3-methylbutyl)benzamide], the Ki on CYP3A4 [1] (setting [4]) worked out at 0.118 µM; at CYP3A4 [1] (setting [5]), 0.0172 µM. Moreover, the IC50 was 0.021 µM at CYP3A4 [2] and 0.018 µM on CYP3A4 [3].
In the same order, the values of `CN(c1cccnc1)S(=O)(=O)c1ccccc1C(=O)NCc1cccc(F)c1` [Example 357, N-(3-fluorobenzyl)-2-{[methyl(pyridin-3-yl)amino]sulfonyl}benzamide] are 0.123 µM, 0.0304 µM, 0.043 µM and 0.032 µM.
In the same order, the values of `COc1cncc(NS(=O)(=O)c2ccccc2C(=O)NC(C)(C)c2ccc(F)c(F)c2)c1` [Example 148, N-[1-(3,4-difluorophenyl)-1-methylethyl]-2-{[(5-methoxypyridin-3-yl)amino]sulfonyl}benzamide] are 0.0181 µM, 0.0049 µM, 0.015 µM and below 0.003 µM.
As for `CC1CCN(C(=O)c2ccccc2S(=O)(=O)N(C)c2cccnc2)CC1` [Example 356, N-methyl-2-[(4-methylpiperidin-1-yl)carbonyl]-N-pyridin-3-ylbenzenesulfonamide], the Ki on CYP3A4 [1] (setting [4]) was 0.483 µM; at CYP3A4 [1] (setting [5]), 0.148 µM. For the same compound, the IC50 is 0.114 µM at CYP3A4 [2] and 0.083 µM at CYP3A4 [3].
Consider `COc1cncc(NS(=O)(=O)c2ccc(OCCN3CCNCC3)cc2C(=O)N(C)C(C)C)c1` [Example 242, N-isopropyl-2-{[(5-methoxypyridin-3-yl)amino]sulfonyl}-N-methyl-5-(2-piperazin-1-ylethoxy)benzamide], for which the Ki on CYP3A4 [1] (setting [4]) turned out to be 0.246 µM; on CYP3A4 [1] (setting [5]) it was 0.2 µM. Further, the IC50 amounted to 0.289 µM at CYP3A4 [2] and 0.254 µM on CYP3A4 [3].
In the case of `COc1cccc(CNC(=O)c2ccccc2S(=O)(=O)Nc2cccnc2)c1` [Example 46, N-(3-methoxybenzyl)-2-[(pyridin-3-ylamino)sulfonyl]benzamide], the Ki at CYP3A4 [1] (setting [4]) worked out at 0.325 µM. Further, the IC50 on CYP3A4 [2] and at CYP3A4 [3] was 0.023 µM each time.
As to `COc1ccncc1NS(=O)(=O)c1ccccc1C(=O)N(C)Cc1ccc(F)c(F)c1` [Example 256, N-(3,4-difluorobenzyl)-2-{[(4-methoxypyridin-3-yl)amino]sulfonyl}-N-methylbenzamide], the Ki at CYP3A4 [1] (setting [4]) was determined as 0.0302 µM; on CYP3A4 [1] (setting [5]), 0.00525 µM. In addition, the IC50 was 0.016 µM on CYP3A4 [2] and 0.0145 µM at CYP3A4 [3].
With `COc1ccc(CNC(=O)c2ccccc2S(=O)(=O)Nc2cncc(OC)c2)cc1` [Example 373, N-(4-methoxybenzyl)-2-{[(5-methoxypyridin-3-yl)amino]sulfonyl}benzamide], the Ki on CYP3A4 [1] (setting [4]) was 0.221 µM; on CYP3A4 [1] (setting [5]) it was 0.045 µM. Besides, the results for the IC50 on CYP3A4 [2] and on CYP3A4 [3] were 0.049 µM and 0.037 µM, respectively.
In the same order, the values of `CCCCNC(=O)c1ccccc1S(=O)(=O)N(C)c1cccnc1` [Example 351, N-butyl-2-{[methyl(pyridin-3-yl)amino]sulfonyl}benzamide] are 0.456 µM, 0.138 µM, 0.11 µM and 0.113 µM.
In the case of `CCOc1cncc(NS(=O)(=O)c2ccccc2C(=O)NC2CCCC2)c1` [Example 287, N-cyclopentyl-2-{[(5-ethoxypyridin-3-yl)amino]sulfonyl}benzamide], the figures for the Ki on CYP3A4 [1] (setting [4]) and at CYP3A4 [1] (setting [5]) were 0.216 µM and 0.0477 µM, respectively. Moreover, the IC50 on CYP3A4 [2] was found to be 0.099 µM; on CYP3A4 [3], 0.043 µM.
`CC(C)(C)CNC(=O)c1ccccc1S(=O)(=O)Nc1cccnc1` [Example 44, N-(2,2-dimethylpropyl)-2-[(pyridin-3-ylamino)sulfonyl]benzamide]: on CYP3A4 [1] (setting [4]), the Ki was 0.617 µM. Moreover, the IC50 on CYP3A4 [2] was found to be 0.167 µM; at CYP3A4 [3], 0.072 µM.
Consider `CC1CCN(C(=O)c2ccccc2S(=O)(=O)Nc2cccnc2)CC1` [Example 41, 2-[(4-methylpiperidin-1-yl)carbonyl]-N-pyridin-3-ylbenzenesulfonamide], for which the Ki stood at 0.486 µM on CYP3A4 [1] (setting [4]) and 0.0303 µM on CYP3A4 [1] (setting [5]). For the same compound, the values for the IC50 at CYP3A4 [2] and at CYP3A4 [3] were 0.0834 µM and 0.0628 µM, respectively.
In the same order, the values of `O=C(NC1(CO)CCCC1)c1ccccc1S(=O)(=O)Nc1cccnc1` [Example 23, N-[1-(hydroxymethyl)cyclo-pentyl]-2-[(pyridin-3-ylamino)sulfonyl]benzamide] are above 1 µM, 0.28 µM, 0.325 µM and 0.103 µM.
On to `COc1cncc(NS(=O)(=O)c2ccccc2C(=O)NC(CO)Cc2ccc(Cl)cc2)c1` (centres unmarked) [Example 199, N-[1-(4-chlorobenzyl)-2-hydroxyethyl]-2-{[(5-methoxypyridin-3-yl)amino]sulfonyl}benzamide], for which the Ki on CYP3A4 [1] (setting [4]) amounted to 0.0127 µM; at CYP3A4 [1] (setting [5]) it was 0.0105 µM. Moreover, the IC50 at CYP3A4 [2] was 0.011 µM; at CYP3A4 [3], 0.006 µM.
As for `O=C(NCc1ccccc1F)c1ccccc1S(=O)(=O)Nc1cccnc1` [Example 5, N-(2-fluorobenzyl)-2-[(pyridin-3-ylamino)sulfonyl]benzamide], the results for the Ki at CYP3A4 [1] (setting [4]) and at CYP3A4 [1] (setting [5]) were 0.0559 µM and 0.0058 µM, respectively. Moreover, the IC50 was 0.066 µM at CYP3A4 [2] and 0.041 µM at CYP3A4 [3].
In the same order, the values of `Cc1cncc(NS(=O)(=O)c2ccccc2C(=O)NCCc2ccccc2Cl)c1` [Example 226, N-[2-(2-chlorophenyl)ethyl]-2-{[(5-methylpyridin-3-yl)amino]sulfonyl}benzamide] are 0.0164 µM, 0.0026 µM, 0.008 µM and below 0.003 µM.
Take `CN(Cc1cccc(F)c1)C(=O)c1ccccc1S(=O)(=O)Nc1cccnc1` [Example 350, N-(3-fluorobenzyl)-N-methyl-2-[(pyridin-3-ylamino)sulfonyl]benzamide]: the Ki was 0.139 µM at CYP3A4 [1] (setting [4]) and 0.0214 µM on CYP3A4 [1] (setting [5]). For the same compound, the figures for the IC50 at CYP3A4 [2] and on CYP3A4 [3] were 0.039 µM and 0.02 µM, respectively.
Take `Cc1cncc(NS(=O)(=O)c2ccccc2C(=O)NCCc2ccccc2C)c1` [Example 319, N-[2-(2-methylphenyl)ethyl]-2-{[(5-methylpyridin-3-yl)amino]sulfonyl}benzamide]: the Ki was 0.0043 µM at CYP3A4 [1] (setting [4]) and 0.0072 µM on CYP3A4 [1] (setting [5]). Besides, the results for the IC50 at CYP3A4 [2] and at CYP3A4 [3] were 0.011 µM and 0.01 µM, respectively.
For the compound `N#Cc1cncc(NS(=O)(=O)c2ccccc2C(=O)N2CCCCC2)c1` [Example 22, N-(5-cyanopyridin-3-yl)-2-(piperidin-1-ylcarbonyl)benzenesulfonamide], the Ki on CYP3A4 [1] (setting [4]) was above 1 µM. Further, the IC50 on CYP3A4 [2] and at CYP3A4 [3] was above 0.75 µM throughout.
